Paper PMC9020084 (iScience, 2022)

Legend:
Format in all cases: biochemical
[1] = target: T1, SHIP2-Enz (S2-Enz) (Homo sapiens, UniProt O15357); assay: fluorescence polarization PI
T1 sequence (O15357 414-872): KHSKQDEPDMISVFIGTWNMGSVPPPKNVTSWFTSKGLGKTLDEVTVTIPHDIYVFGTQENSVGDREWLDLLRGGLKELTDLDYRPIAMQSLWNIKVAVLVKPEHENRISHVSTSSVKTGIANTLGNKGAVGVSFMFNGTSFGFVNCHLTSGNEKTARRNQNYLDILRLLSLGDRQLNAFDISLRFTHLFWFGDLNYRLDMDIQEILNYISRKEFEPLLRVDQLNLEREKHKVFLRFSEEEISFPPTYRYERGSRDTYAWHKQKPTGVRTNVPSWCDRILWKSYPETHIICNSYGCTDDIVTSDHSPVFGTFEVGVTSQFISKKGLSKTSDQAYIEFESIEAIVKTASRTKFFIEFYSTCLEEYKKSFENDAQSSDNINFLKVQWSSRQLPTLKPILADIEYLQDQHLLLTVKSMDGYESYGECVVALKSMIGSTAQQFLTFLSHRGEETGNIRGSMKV

[2] = target: T2, SHIP1ΔC2 (S1ΔC2) (Homo sapiens, UniProt Q92835); assay: malachite green phosphate release; conditions: agonist (activation); C2 domain deleted
T2 sequence (Q92835 397-730): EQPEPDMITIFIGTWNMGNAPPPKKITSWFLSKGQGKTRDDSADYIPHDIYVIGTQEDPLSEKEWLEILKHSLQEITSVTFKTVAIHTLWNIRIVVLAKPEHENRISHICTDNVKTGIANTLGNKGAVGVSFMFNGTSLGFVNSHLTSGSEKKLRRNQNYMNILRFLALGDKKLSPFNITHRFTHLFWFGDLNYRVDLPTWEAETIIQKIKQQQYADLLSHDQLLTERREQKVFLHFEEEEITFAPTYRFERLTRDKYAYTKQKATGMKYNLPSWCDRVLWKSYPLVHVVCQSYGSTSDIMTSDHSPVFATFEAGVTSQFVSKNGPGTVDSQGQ

[3] = target: T3, SHIP1-Enz (S1-Enz) (Homo sapiens, UniProt Q92835); assay: fluorescence polarization PI
T3 sequence (Q92835 397-864): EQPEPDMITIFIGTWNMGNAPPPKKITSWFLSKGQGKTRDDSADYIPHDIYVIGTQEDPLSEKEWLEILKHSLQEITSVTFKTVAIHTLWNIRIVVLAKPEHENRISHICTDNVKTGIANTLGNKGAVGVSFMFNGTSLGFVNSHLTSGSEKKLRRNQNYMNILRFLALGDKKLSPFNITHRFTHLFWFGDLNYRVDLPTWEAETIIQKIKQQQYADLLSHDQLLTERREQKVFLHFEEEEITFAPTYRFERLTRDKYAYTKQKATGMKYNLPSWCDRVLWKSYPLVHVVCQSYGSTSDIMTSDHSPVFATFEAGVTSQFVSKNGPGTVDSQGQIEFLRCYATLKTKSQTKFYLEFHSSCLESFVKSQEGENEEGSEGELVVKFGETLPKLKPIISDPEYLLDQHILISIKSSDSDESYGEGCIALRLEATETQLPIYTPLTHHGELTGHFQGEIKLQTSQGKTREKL

EC50 [1]: 1170 nM | EC50 [3]: 119 nM
SMILES: Cc1sc(S(=O)(=O)N2CCSCC2)cc1NC(=O)CNS(=O)(=O)c1ccc(F)cc1 [compound 8, K306]
malachite green phosphate release [2]: K306 retained significant agonistic activity for SHIP1ΔC2
